Measurements reported in PubChem BioAssay (NCI).
Where “and” joins values, the source holds several entries; their conditions need not be identical. Identical values can stand only once.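 Compound exposure: 48 hours, 5 concentrations, 96-well plates. The concentration for 50% growth inhibition is given as GI50. Definition used: TGI = concentration required for complete inhibition of growth.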

Assays:
Test in all cases: NCI anticancer screen, dose series, 48 h
[1] = system: SK-MEL-2 melanoma
[2] = system: MCF7 breast
[3] = system: RXF 393 renal
[4] = system: OVCAR-3 ovarian
[5] = system: OVCAR-4 ovarian
[6] = system: OVCAR-8 ovarian
[7] = system: SW-620 colon
[8] = system: SN12C renal
[9] = system: MALME-3M melanoma
[10] = system: LOX IMVI melanoma

Structure (SMILES)	GI50 [1]	TGI [1]	GI50 [2]	TGI [2]	GI50 [3]	TGI [3]	GI50 [4]	TGI [4]	GI50 [5]	TGI [5]	GI50 [6]	TGI [6]	GI50 [7]	TGI [7]	GI50 [8]	TGI [8]	GI50 [9]	TGI [9]	TGI [10]	GI50 [10]
O=S(=O)(c1ccc2c(c1)C(=NO)c1cc(S(=O)(=O)N3CCCCC3)ccc1-2)N1CCCCC1	> 1 µM and 0.176 µM	> 1 µM and 0.331 µM	> 1 µM and 0.178 µM	> 1 µM and 0.344 µM	> 1 µM and 0.204 µM	> 1 µM and 0.358 µM	0.87 µM and 0.177 µM	> 1 µM and 0.321 µM	0.195 µM and 0.0636 µM	0.426 µM and 0.143 µM	0.306 µM and 0.0904 µM	0.842 µM and 0.281 µM	0.197 µM and 0.0743 µM	0.437 µM and 0.174 µM	0.208 µM and 0.144 µM	0.438 µM and 0.28 µM	> 1 µM and 0.174 µM	> 1 µM and 0.312 µM		
CC12Oc3ccc4ccccc4c3C1c1c(ccc3ccccc13)O2 (stereo unspecified)		> 100 µM				> 100 µM		> 100 µM		> 100 µM		> 100 µM		> 100 µM		> 100 µM		> 100 µM	> 100 µM	
CCOC(=O)/C(=C/c1cc(OC)ccc1OC)CC(=O)O		34.5 µM				> 100 µM		> 100 µM		> 100 µM		> 100 µM		> 100 µM		> 100 µM		> 31.6 µM	> 100 µM	
OCC1OC(n2ccc3cnccc32)CC1O (stereo unspecified)		> 100 µM						> 100 µM		> 100 µM		> 100 µM		> 100 µM		> 100 µM		> 100 µM	> 100 µM	
Cc1cc(N2CCOCC2)nc(N(CCNc2ccnc3cc(Cl)ccc23)Cc2ccco2)n1	2.14 µM	5.18 µM	3.15 µM	18.9 µM	1.64 µM	4.29 µM			2.4 µM	8.12 µM	3.84 µM	> 100 µM	3.39 µM	45.2 µM	6.88 µM	26.7 µM	3.41 µM	10.3 µM	4.91 µM	2.03 µM
CC1C(=O)CCC1C(Sc1ccccc1)(Sc1ccccc1)Sc1ccccc1 (stereo unspecified)		> 100 µM				51.3 µM		> 100 µM		> 100 µM		> 100 µM		> 100 µM		91 µM		> 100 µM	68.5 µM	
COC1OC(COCc2ccc(Cl)cc2)C(OCc2ccc(Cl)cc2)C1O (stereo unspecified)		30.6 µM				29.1 µM		42.8 µM		> 100 µM		69.7 µM		29.6 µM		31.8 µM		30.3 µM	32.8 µM	
C=CC[Se]C(=O)c1ccccc1OC(C)=O	2.05 µM	4.33 µM	1.83 µM	4.31 µM			1.95 µM	3.51 µM	1.68 µM	3.19 µM	1.52 µM	3.56 µM	1.87 µM	3.9 µM	1.61 µM	3.01 µM	1.66 µM	3.38 µM	3.78 µM	1.86 µM
COc1cc(-c2nn(C)nc2-c2cc3ccccc3s2)cc(OC)c1OC	0.0597 µM	21.2 µM	0.0403 µM	> 100 µM	0.286 µM	46.9 µM	0.0354 µM	0.77 µM			0.352 µM	> 100 µM	0.0633 µM	> 100 µM			16.9 µM	> 100 µM	> 100 µM	0.169 µM
CCOC(=O)NC(=O)c1cn(CCCCCCCCCCC(=O)N2CCN(CCn3cc(C(=O)NC(=O)OCC)c(=O)[nH]c3=O)CC2)c(=O)[nH]c1=O						> 100 µM		> 100 µM		> 100 µM		> 100 µM		> 100 µM		> 100 µM			> 100 µM	
